pEC50: −log10 of the molar value.
Columns and labels:
Human Glucokinase = molecular target: T1, Human Glucokinase (Homo sapiens, UniProt P35557); test: tandem Glucokinase activation assay (uncoupled); type: biochemical; conditions: 12 mM glucose; human full-length GK 15 nM
T1 construct: Full-length human hepatic GK (untagged); made in house; host or cells: E. coli BL21 STAR (DE3)pLysS
T1 sequence (P35557 1-466 isoform P35557-2): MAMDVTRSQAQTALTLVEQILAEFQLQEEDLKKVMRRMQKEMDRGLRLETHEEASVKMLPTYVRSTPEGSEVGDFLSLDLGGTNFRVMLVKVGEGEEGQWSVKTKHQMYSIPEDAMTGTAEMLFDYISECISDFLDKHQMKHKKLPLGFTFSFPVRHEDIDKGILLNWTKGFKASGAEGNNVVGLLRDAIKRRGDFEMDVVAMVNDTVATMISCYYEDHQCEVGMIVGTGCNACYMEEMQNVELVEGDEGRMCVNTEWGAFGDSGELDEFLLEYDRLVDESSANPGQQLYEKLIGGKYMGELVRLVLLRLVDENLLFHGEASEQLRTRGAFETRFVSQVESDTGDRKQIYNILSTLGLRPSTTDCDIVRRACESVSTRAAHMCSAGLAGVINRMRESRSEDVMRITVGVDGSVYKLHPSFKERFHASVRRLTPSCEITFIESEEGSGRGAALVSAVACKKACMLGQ
Method: A tandem Glucokinase activation assay (uncoupled) was used to assess the activity of glucokinase (GK) in the presence of GK activator compounds. The below-described tandem assay protocol was followed using a range of activator compound concentrations from 0 to 100 µM at 5 and 12 mM concentrations of glucose. Human full-length GK (15 nM) was incubated with 5 or 12 mM glucose in 384 well black microtiter plates with a clear bottom. To initiate the GK reaction, magnesium-ATP (3 mM final concentration) was added to the protein in buffer, under the final buffer conditions of 25 mM HEPES buffer, pH 7.1, containing 1 mM DTT (dithiothreitol) and […]. The total reaction volume was 20 μL. The reaction was allowed to proceed for ten minutes and was then quenched with 5 μL EDTA (ethylenediamine tetra-acetic acid; 45 mM final). The components of the detection reaction, ThioNAD (thio-nicotinamide adenine dinucleotide) and G6PDH (glucose-6-phosphate dehydrogenase) (final concentrations of 650 μM and 3.33 Units, respectively), were then added together in a volume of 25 μL, and a total volume of 50 μL. Absorbance was read and activation calculated as a percentage of background activity, ie., GK in the presence of DMSO, with background glucose-6-phosphate subtracted. Absorbance measurements were made at 405 nm on a Spectramax Plus 384 absorbance plate reader (Molecular Devices). Background glucose-6-phosphate was determined by pre-quenching GK with EDTA prior to reaction initiation with ATP.
Expression and Purification of Human GK
Full-length human hepatic GK (untagged) as expressed in BL21 STAR (DE3)pLysS cells (Invitrogen) at 25° C. as described by Mookhtiar et al.^1 The protein was purified essentially as described by Lange^2 with a slight modification. Cell pellets were lysed via three rounds of freezing and thawing, centrifuged at 15000 g for clarification, and precipitated with 40-65% (NH4)2SO4. The resulting pellet was re-suspended in buffer dialyzed, and applied directly to a Q-Sepharose (Sigma) column followed by elution with a linear 100-600 mM KCl gradient. GK containing fractions were pooled, dialyzed overnight vs. 25 mM HEPES pH 7.2/1 mM MgCl2/1 mM EDTA/0.1 M KCl/1 mM DTT, then dialyzed again with the same buffer with 10% glycerol added. ^1Mookhtiar, K. A., Kalinowski, S. S., Brown, K. S., Tsay, Y. H., Smith-Monroy, C., and Robinson, G. W. (1996) “Heterologous expression and characterization of rat liver glucokinase regulatory protein”, Diabetes 45:1670-1677.^2Lange, A. J., Xu, L. Z., Van Poelwijk, F., Lin, K., Granner, D. K., and Pilkis, S. J. (1991) “Expression and site-directed mutagenesis of hepatic glucokinase”, Biochem. J., 277:159-163.

DIO mice = test: Oral glucose tolerance test (OGTT) in DIO mice; type: in vivo; conditions: male DIO C57BL/6J mice, 60 mg/kg oral, given 60 min before 2 g/kg glucose, ΔAUC 0-120 min
Method: In Vivo Studies: Oral Glucose Tolerance Test (OGTT)
Oral glucose tolerance tests were carried out on male DIO (diet-induced obese C57BL/6J mice fed a high fat diet (60% kcal from fat) for 26 weeks prior to experimentation. Mice were fasted overnight before use for experiments. A test compound or vehicle (10% dimethyl acetamide+10% ethanol+10% Cremophore+70% water) was given orally 60 min before oral administration of a glucose solution at a dose of 2 g/kg body weight (oral glucose tolerance test; OGTT). Blood glucose levels were measured from tail-bled samples taken at different time points before and after administration of glucose (time course of 2 hours). A time curve of the blood glucose was generated and the change from baseline area-under-the curve (ΔAUC) from 0-120 min was calculated (the time glucose administration being time zero).

Structure (SMILES)	pEC50 (Human Glucokinase)	reduction of glucose AUC levels in an OGTT (DIO mice) [%]
CS(=O)(=O)c1ccc([C@@H](CC2CCCC2)C(=O)Nc2ncc(Oc3ccccc3C(N)=O)s2)cc1 [Example 24]	5.40	
O=C(Nc1ncc(Oc2cccc(C(=O)N3CCC3)c2)s1)[C@H](CC1CCOCC1)c1ccc(S(=O)(=O)C2CC2)cc1 [Example 18]	7.41	
CS(=O)(=O)c1ccc([C@@H](CC2CCCC2)C(=O)Nc2ncc(Oc3ccc(C(=O)O)cc3)s2)cc1 [Example 9]		37
CS(=O)(=O)c1ccc([C@@H](CC2CCCC2)C(=O)Nc2ncc(Oc3ccc(C#N)cc3)s2)cc1 [Example 20]	5.06	
O=C(Nc1ncc(Oc2cccc(C(=O)N3CC(O)C3)c2)s1)[C@H](CC1CCOCC1)c1ccc(S(=O)(=O)C2CC2)cc1 [Example 19]	7.42	

More lines, in order of rising pEC50 (Human Glucokinase), values ahead:

pEC50 (Human Glucokinase)	Structure (SMILES)	reduction of glucose AUC levels in an OGTT (DIO mice) [%]
6.07	CS(=O)(=O)c1ccc([C@@H](CC2CCCC2)C(=O)Nc2ncc(Oc3cccc(C(N)=O)c3)s2)cc1 [Example 21]	
6.12	CS(=O)(=O)c1ccc([C@@H](CC2CCCC2)C(=O)Nc2ncc(Oc3cncc(C(=O)O)c3)s2)cc1 [Example 8]	
